{"source": "patent US20250249001A1", "about": "“METHODS OF TREATING SUBSTANCE USE DISORDER WITH 4-(3-CYANOPHENYL)-6-PYRIDINYLPYRIMIDINE MGLU5 NEGATIVE ALLOSTERIC MODULATORS” (Tempero Bio, Inc., priority 2022, published 2025)", "key": {"[1]": {"tested_on": "cocaine-induced CPP in male SD rats", "format": "in vivo, Sprague Dawley rats", "conditions": "cocaine 10 mg/kg IP on days 3, 5, 7, 9; day 10 bias test", "description": "Animals: Male Sprague Dawley rats (Envigo, IN, 275-299 g) were group housed upon arrival (2 per cage). All rats were examined and handled to assure adequate health and suitability. During the study, a 12/12 light/dark cycle was maintained (lights switched on at 7:00 am). The room temperature was maintained between […] and 23° C. with a relative humidity maintained around 50%. Chow (LabDiet #5001) and water were provided ad libitum for the duration of the study. The test was performed during the animal's light cycle phase.\nCocaine (10 mg/kg) was dissolved in saline and injected IP at a dose volume of 1 ml/kg. Cocaine was administered on training days 3, 5, 7 and 9 immediately prior to training.\n3-((2-Methyl-4-thiazolyl)ethynyl)pyridine (MTEP, 3 mg/kg), was dissolved in saline and injected IP on day 10 (bias test) at a dose volume of 1 ml/kg 30 minutes prior to testing.\nCompound 1 (1, 3 and 10 mg/kg) was formulated in 10% Solutol HS15 and 90% (10% aqueous 2-hydroxypropyl-β-cyclodextrin) and injected IP on day 10 (bias test) at a dose volume of 2 ml/kg. Compound 1 was administered 30 minutes prior to testing.\nThe chamber used in this study contained two compartments [(60 cm (L)×40 cm (W)×24 cm (H)]. The compartment used for each animal and drug pairing was assigned and counterbalanced in advance and adjusted as necessary in the rebalancing procedure after day 1 (see details below). Within the chamber, visual and physical features were used to create the two distinct compartments. For example, one compartment may have a flat plastic floor with white stripes and the other may have a textured floor and black stripes. The chambers were cleaned with 70% alcohol in between runs.\nTesting sessions were recorded on days 1 and 10 to determine time spent (seconds) in each chamber.\nDay 1 Pre-conditioning/Habituation: Animals are allowed to explore the entire testing chamber freely for 20 min. Animals that display a strong preference for one compartment (>75% time spent in one compartment) are excluded.\nRebalancing Procedure: Animals are rebalanced following day 1 scoring if the difference between groups for time spent in one compartment is greater than 15%.\nDays 2-9 Conditioning: All animals are treated with saline on days 2, 4, 6, and 8 and with cocaine or saline on days 3, 5, 7, and 9 depending on their assigned group. Animals are confined to their assigned compartment (saline- or cocaine-paired compartment) for 20 minutes following dosing.\nDay 10 Post-conditioning bias test: Animals are dosed once with either saline, MTEP or Compound 1 (1, 3 and 10 mg/kg) according to their assigned. Following dosing, animals are allowed to explore the testing chamber freely for 20 minutes with the compartment dividing door open. Their activity exploring the chamber is recorded for analysis.\nStatistical Analysis: Statistical analysis was conducted using GraphPad Prism 9. Scorers blinded to the treatment groups scored the amount of time each animal spent exploring each chamber on days 1 and 10. For bias test data, a one-way analysis of variance (ANOVA) followed by Dunnett's post hoc test was used. Significance was set at p<0.05 and values exceeding two standard deviations of the mean were considered statistical outliers and were excluded from the analysis. Additionally, if an animal spent >85% or <15% of the time in one compartment even without any obvious signs of sedation or locomotor dysfunction, they were excluded from the analysis."}, "[2]": {"tested_on": "voluntary home-cage alcohol drinking by Wistar rats", "test": "Home-cage two-bottle choice alcohol drinking, acute treatment", "format": "in vivo", "description": "Animals: Male Wistar rats (Charles River Laboratories, INC) were used in these studies. Rat housing and testing was conducted at the University of North Carolina at Chapel Hill (UNC-CH) School of Medicine in a state-of-the-art rodent vivarium approved by the Association for Assessment and Accreditation of Laboratory Animal Care International (AAALAC). Rat health was monitored daily by study investigators and veterinarians in the Division of Comparative Medicine UNC. All experimental procedures were carried out in accordance with the NIH Guide to Care and Use of Laboratory Animals (Committee for the Update of the Guide for the Care and Use of Laboratory Animals, 2011) and institutional guidelines.\nRats were housed individually in standard Plexiglas cages with standard rodent food and water available ad libitum. Upon arrival from the vendor, rats were given 7 days to acclimate to the vivarium during which they were weighed and handled by an investigator each day to monitor general health and habituate them to human contact. Rats were then weighed each day within 1-h of experimental procedures to calculate drug dosages relative to body weight. […] The colony was maintained at […] on a 12-hour light/dark cycle, with the lights on from 10 AM-10 PM. All behavioral experiments were conducted during the light portion of the light cycle.\nHome-cage alcohol drinking method. Oral alcohol and water intake were examined using a two-bottle choice protocol, which is standard in the field and commonly used in our laboratory. Male Wistar rats (n=12) were first adapted to drinking from a 50 ml conical tube fitted with a standard stainless-steel ball bearing sipper tube that limits spillage. Then, two bottles were place on the cage daily. One bottle contained an alcohol solution and the other contained water. Bottles containing fresh solutions were weighed daily before and after a 24 hr access period. After drug treatment, bottles were weighed after 1 hr and 24 hrs of access. Each week, rats had 4-5 days of sweetened alcohol and water available and the remaining days only water.\nBriefly, rats were first exposed to alcohol (10% v/v)+sucrose (5% w/v). versus water in the two bottles. Then, over a period of 6-weeks, the concentrations of alcohol and sucrose were gradually adjusted to alcohol (8% v/v)+sucrose (2% w/v) to achieve intake of pharmacologically relevant doses of alcohol. Rats were maintained at this concentration for the duration of the experiment for both acute (3.1.a) and chronic (3.1.b) home-cage drinking studies. Use of sweetened alcohol solutions in preclinical research provides face validity to the binge-intoxication stage of alcohol addiction in humans where sweeteners are commonly added to alcohol.\nCompound 1 treatment. After establishing baseline intake of sweetened alcohol and water, rats were habituated to i.p. injections. All rats (N=12) were administered 3 habituation injections of vehicle (10% w/v kolliphor in BCD (10%)) prior to the Compound 1 dose response curve and alcohol intake was measured. Then, the Compound 1 dose response curve was conducted with dose order randomized according to a modified Latin-Square design. Rats were given a minimum of 1-2 days between injections to ensure normal drinking was re-established in absence of drug administration. Each dose of Compound 1 (0-10 mg/kg) was administered via i.p. injection and rats were placed back in the home-cage for 1 hr prior to the return of sweetened alcohol and water. Alcohol intake was measured after 1-h and 24-hrs of access in grams by weighing the drinking bottles. Data were excluded from 1 rat that emptied both bottles fully each day without drinking the solutions; thus, results are presented for a final group of N=11 rats.\nEfficacy comparisons to MPEP and Naltrexone. […]"}, "[3]": {"tested_on": "operant alcohol self-administration in Wistar rats", "test": "Operant alcohol self-administration (FR-1), acute treatment", "format": "in vivo", "conditions": "3 mg/kg IP, 1-h pretreatment", "text": "Twelve operant conditioning chambers designed for rats (30.5 cm×24.1 cm×21.0 cm; Med Associates, Georgia, VT) were located within sound-attenuating cubicles in a devoted room to limit extraneous potential impact by extraneous environmental variables. Each cubicle was equipped with an exhaust fan that provided ventilation and masked external sounds. The chambers were electronically interfaced to a Microsoft Windows based computer that was programmed using investigator developed software to control sessions and record number of lever press responses at 100-ms intervals.\nThe right wall of each chamber contained a liquid receptacle and a response lever (Med Associates) that was termed the active lever. Lever press responses on the active lever activated a syringe pump (PHM-100, Med Associates) that delivered 0.1 ml of alcohol solution (ethanol 8% v/v+sucrose 2% w/v) into the receptacle over a 1.66-s period. Head entries into the liquid receptacle were recorded when an infrared photo beam was broken. A stimulus light located above the response lever was illuminated during pump activation. Lever presses during reinforcer delivery were recorded but produced no programmed consequence. […] Behavior on this lever serves as a control for motor disruptions and other nonspecific effects of test compounds. […]\nTesting the efficacy of Compound 1 to reduce the reinforcing, or rewarding, effects of alcohol. Following establishment of stable baseline self-administration behavior, effects of pre-session treatment with the novel mGluR5 negative allosteric modulator Compound 1 (0, 0.3, 1, 3, and 10 mg/kg, IP) were evaluated on operant alcohol self-administration behavior (n=12 rats). […] Parameters of operant performance were measured, including total lever press responses, number of headpokes into the liquid receptacle, and rate of operant responding, which is a direct measure of positive reinforcement function. […]"}}}
{"molecule": "COC(=O)[C@H]1[C@@H](OC(=O)c2ccccc2)C[C@@H]2CC[C@H]1N2C", "note": "[Cocaine]", "values": [{"measurement": "Percent time in compound-paired compartment, Mean Diff., Cocaine - Saline vs. Saline - Saline", "setting": "[1]", "value": 13.86, "unit": "%"}, {"measurement": "Preference Scores (time difference drug-paired minus saline-paired), Mean Diff., Cocaine - Saline vs. Saline - Saline", "setting": "[1]", "value": 332.9, "unit": "s"}]}
{"molecule": "O=C1CC[C@@]2(O)[C@H]3Cc4ccc(O)c5c4[C@@]2(CCN3CC2CC2)[C@H]1O5", "note": "[Naltrexone, reference compound]", "values": [{"measurement": "H2O intake after 24-hr access", "setting": "[2]; 3 mg/kg i.p., Compound 1 or comparison compounds", "value": "no effect"}, {"measurement": "water intake after 1-hr access", "setting": "[2]; Compound 1 0-10 mg/kg, or Compound 1, MPEP, Naltrexone 3 mg/kg i.p.", "value": "did not reach statistical significance"}, {"measurement": "alcohol intake at the 24-hr measurement interval, comparison of equivalent doses", "setting": "[2]; each drug 3 mg/kg i.p. acute", "value": "only Compound 1 (3 mg/kg) maintained efficacy"}, {"measurement": "alcohol drinking at 1-hr of access vs vehicle control, positive control comparison", "setting": "[2]; each drug 3 mg/kg i.p. acute, N=11", "value": "significantly decreased alcohol drinking"}, {"measurement": "EtOH reinforced responses vs vehicle, multiple comparisons", "setting": "[3]", "value": "reduced EtOH reinforced responses"}]}
